Measurements taken from patent US20080161245A1, “Protein-Binding Anthracycline Peptide Derivatives and Drugs Containing Them” (KTB Tumorforschungsgesellschaft mbH, priority 2005, published 2008).
*: point of attachment. Hexanoyl(6-maleimido) = O=C1C=CC(=O)N1CCCCCC(=O)*

Assays:
[1] = test system: CWR22 tissue homogenate; assay: Cleavage study of the doxorubicin dipeptide with CWR22 tissue homogenate (HPLC); type: in vitro ADME; conditions: pH 7.4, 37° C., anthracycline 100 μM, 5 minutes, 6 hours, 20 hours, FIG. 2
Experimental: FIG. 2 is chromatogram of a cleavage study of the doxorubicin-dipeptide Doxo-Arg-Ser with PSA-positive prostate carcinoma CWR22. Chromatogram of an incubation study of the cleaved doxorubicin-dipeptide [Doxo-Arg-Ser] with CWR22 homogenate recorded at 37° C. after 0 hours, 6 hours, and 20 hours. The concentration of anthracycline was […]. HPLC conditions: see FIG. 1. The CWR22 homogenate (250 mg/l mL) was produced by homogenization of CWR22 xenograft tumors in 50 mM tris-HCl buffer at pH 7.4 containing 1 mM monothioglycerol.
An incubation study at 37° C. with CWR22 tissue homogenate at pH 7.4 was conducted with the doxorubicin dipeptide (Doxo-Arg-Ser) obtained as described in Example 2. The concentration of anthracycline was 100 μM. HPLC chromatography was conducted under the conditions of Example 2 after 5 minutes, 6 hours, and 20 hours.

[2] = test system: PSA-positive xenograft model CWR22; assay: In-vivo activity in the PSA-positive xenograft model (CWR22); parameters: species or system hairless mice
Experimental: The course of the tumor growth of the subcutaneously growing PSA-positive xenograft model CWR22, which was treated with structure 3 [dose (i.v.): 2×13.3 μmol/kg (=2×8 mg/kg doxorubicin equivalents) on days 13 and 20; 3×39.9 μmol/kg (=3×24 mg/kg doxorubicin equivalents) on days 13, 20, and 27; and 3×59.9 μmol/kg (=3×36 mg/kg doxorubicin equivalents) on days 13, 20, and 27] is shown in FIG. 6.
Animals: hairless mice. Stock solution of compound 3:6.0 mg/mL in 10 mM sodium phosphate, 5% D-glucose (pH 6.4); control (buffer): glucose-phosphate buffer (10 mM sodium phosphate, 5% D-glucose—pH 6.4) on days 13 and 20.
The course of the tumor growth of the subcutaneously growing PSA-positive xenograft model CWR22, which was treated with structure 1 [dose (i.v.): 2×13.3 μmol/kg (=2×8 mg/kg doxorubicin equivalents) on days 13 and 20; 3×26.3 μmol/kg (=3×16 mg/kg doxorubicin equivalents) or with buffer (control) on days 13 and 20], is shown in FIG. 7.
Animals: hairless mice. Stock solution of compound 1:7.4 mg/mL in 10 mM sodium phosphate, 5% D-glucose (pH 6.4); control (buffer): glucose-phosphate buffer (10 mM sodium phosphate, 5% D-glucose—pH 6.4) on days 13 and 20.

[3] = biological target: T1, cysteine-34 position of endogenous albumin (Homo sapiens, UniProt P02768); assay: Incubation study with human plasma (binding to albumin, HPLC); conditions: 37° C., 100 μM, after 5 and 90 minutes, FIG. 4
T1 construct: cysteine-34 position of endogenous albumin in blood plasma; from tissue; host or cells: human blood plasma
Experimental: FIG. 4 is chromatogram of an incubation study of compound 3 with human plasma at 37° C. after 5 and 90 minutes. Chromatogram of an incubation study of compound 3 with human plasma at 37° C. after 5 and 90 minutes. The concentration of the anthracycline was 100 μM. HPLC chromatography conditions: see FIG. 3.

Doxo-Arg-Ser
cleavage in tumor tissue homogenate [1]: cleaved to doxorubicin in tumor tissue

EMC-Arg-Arg-Ser-Ser-Tyr-Tyr-Ser-Gly-Doxo ({Hexanoyl(6-maleimido)}-RRSSYYSG-doxorubicin) [compound 3]
antitumoral effect (relative tumor volume) ([2]; i.v. 2×13.3 μmol/kg on days 13 and 20, 3×26.3 μmol/kg, subcutaneous CWR22, FIG. 7): good antitumoral effect | antitumoral effect (relative tumor volume) ([2]; i.v. 2×13.3, 3×39.9 and 3×59.9 μmol/kg on days 13, 20 (27), subcutaneous CWR22, FIG. 6): good antitumoral effect | binding to albumin in blood plasma [3]: binds selectively within a few minutes
